{"source": "paper PMC4176390", "about": "(Journal of Natural Products, 2014)", "key": {"brevenal binding site [1]": {"system": "brevenal binding site", "experiment": "Fluorescent-ligand competition", "design": "species or system rat", "settings": "for displacement of BODIPY FL-brevenal from synaptosomes (in words): BODIPY FL-brevenal 10 nM, competitors 1 pM to 10 μM"}, "brevenal binding site [2]": {"target": "brevenal binding site", "experiment": "Radioligand", "settings": "read-out: Ki: radioligand assay; [3H]-brevenol, rat brain synaptosomes, mean ± SEM"}, "sheep": {"system": "sheep", "settings": "cited from earlier work"}, "[3]": {"system": "voltage-sensitive sodium channels (VSSCs)", "settings": "cited from earlier work"}, "fish": {"system": "fish", "settings": "cited from earlier work"}, "VSSCs": {"system": "VSSCs", "settings": "cited from earlier work"}}}
{"molecule": "CCN1C[C@]2(COC)[C@H](O)C[C@H](OC)[C@@]34[C@@H]5C[C@@]6(O)[C@H](OC(=O)c7ccccc7)[C@@H]5[C@@](OC(C)=O)([C@@H]([C@H](OC)[C@H]23)[C@@H]14)[C@@H](O)[C@@H]6OC", "note": "[aconitine]", "values": [{"measurement": "displacement of BODIPY FL-brevenal from synaptosomes (in words)", "setting": "brevenal binding site [1]", "result": "none of these ligands were able to displace"}]}
{"molecule": "C=C/C=C\\CC[C@H]1O[C@H]2CC[C@@]3(C)O[C@H]4[C@@H](O)C[C@@]5(C)O[C@@H](CC/C=C(C)/C(C)=C/C=O)[C@@H](C)C[C@H]5O[C@@H]4C[C@@H]3O[C@@H]2CC[C@@]1(C)O", "note": "[brevenal]", "values": [{"measurement": "Ki", "setting": "brevenal binding site [2]", "result": "149 ± 30", "unit": "nM"}, {"measurement": "mucociliary transport in sheep", "setting": "sheep", "result": "increases mucociliary transport"}, {"measurement": "displacement of tritiated PbTx from synaptosomes", "setting": "[3]", "result": "competitively displace"}, {"measurement": "toxicity to fish", "setting": "fish", "result": "nontoxic at micromolar concentrations"}, {"measurement": "effect on VSSCs in patch-clamp experiments", "setting": "VSSCs", "result": "does not appear to have any effect"}, {"measurement": "displacement of BODIPY FL-brevenal from synaptosomes (in words)", "setting": "brevenal binding site [1]", "result": "competed for binding to synaptosomes"}, {"measurement": "Ki", "setting": "brevenal binding site [1]; read-out: Ki: fluorescent-ligand assay, BODIPY FL-brevenal 10 nM as ligand, rat brain synaptosomes, mean ± SEM", "result": "170 ± 31", "unit": "nM"}]}
{"molecule": "CC1(C)[C@H](C(=O)O[C@H](C#N)c2cccc(Oc3ccccc3)c2)[C@@H]1C=C(Br)Br", "note": "[deltamethrin]", "values": [{"measurement": "displacement of BODIPY FL-brevenal from synaptosomes (in words)", "setting": "brevenal binding site [1]", "result": "none of these ligands were able to displace"}]}
{"molecule": "COc1ccc(C(=O)O[C@H]2CC[C@@]3(C)[C@@H]4CC[C@H]5[C@]6(O)C[C@H](O)[C@@]7(O)[C@@H](CN8C[C@@H](C)CC[C@H]8[C@@]7(C)O)[C@]6(O)C[C@@]53O[C@]24O)cc1OC", "note": "[veratridine]", "values": [{"measurement": "displacement of BODIPY FL-brevenal from synaptosomes (in words)", "setting": "brevenal binding site [1]", "result": "none of these ligands were able to displace"}]}
{"molecule": "PbTx-9", "values": [{"measurement": "displacement of BODIPY FL-brevenal from synaptosomes (in words)", "setting": "brevenal binding site [1]", "result": "None of the naturally occurring PbTx analogues were able to displace"}]}
